Values quoted from earlier work in US20160324770A1, “INTRATHECAL ADMINISTRATION, PREFERABLY INTRAVENTRICULAR, OF MTOR INHIBITORS FOR THE THERAPY OF SOME NEURODEGENERATIVE, NEUROINFLAMMATORY AND NEURO-ONCOLOGIC DISEASES” (priority 2012, published 2016).

Conditions: cited from earlier work

For `CO[C@H]1C[C@@H]2CC[C@@H](C)[C@@](O)(O2)C(=O)C(=O)N2CCCC[C@H]2C(=O)O[C@H]([C@H](C)C[C@@H]2CC[C@@H](O)[C@H](OC)C2)CC(=O)[C@H](C)/C=C(\C)[C@@H](O)[C@@H](OC)C(=O)[C@H](C)C[C@H](C)/C=C/C=C/C=C/1C` [rapamycin], the half-life (according to the FDA) is listed as 62 h and the “half-life compared to everolimus” value is listed as “more than double that time”.
